According to patent US20150086530A1, “DOSING REGIMENS FOR THE TREATMENT OF POMPE DISEASE” (Amicus Therapeutics, Inc., priority 2012, published 2015):
Where two headings read alike, the source gives them in different places.

Assays:
[1] = Plasma AT2220 (1-deoxynojirimycin hydrochloride) pharmacokinetics by LC-MS/MS in Pompe patients; assay type: in vivo, human; conditions: for half-life / AUC(0-t) / AUC(0-inf) / Cmax / Tmax: human, plasma
Procedure: Blood samples for pharmacokinetic analysis will be collected before dosing 1-deoxynojirimycin hydrochloride and at 1 hour after administration of 1-deoxynojirimycin hydrochloride (i.e., immediately before initiation of the alglucosidase alfa infusion) and over the 24-hour period after initiation of the alglucosidase alfa infusion. Plasma and WBC GAA enzyme activity, plasma 1-deoxynojirimycin hydrochloride concentrations and plasma anti-rhGAA antibody titer will be determined from the collected blood samples at the times summarized in Table 2. A 12-lead ECG will be performed at the end of the alglucosidase alfa infusion, immediately after collection of the post-infusion blood sample.
Concentrations of 1-deoxynojirimycin hydrochloride in blood samples will be measured in plasma using a validated LC-MS/MS assay. GAA activity in plasma will be determined by a validated assay measuring enzyme activity using 4-MUG, with and without Con A. GAA protein levels will be measured by Western blotting using anti-human GAA antibody.
Non-compartmental pharmacokinetic parameters of AUC0-t, AUCinfinity, Cmax, tmax, kel and half-life will be calculated from plasma 1-deoxynojirimycin hydrochloride concentrations and plasma rhGAA enzyme levels. Pharmacokinetic parameters will be summarized by treatment using descriptive statistics. The AUC0-t, AUCinfinity ratios for GAA enzyme activity alone or after administration with 1-deoxynojirimycin hydrochloride will be calculated. Pharmacokinetic and pharmacodynamic data for those subjects receiving Myozyme® and Lumizyme® will be analyzed separately.

[2] = AT2220 concentration in muscle biopsies by LC-MS/MS in Pompe patients; assay type: in vivo, human; conditions: for muscle concentrations from Day 3 or Day 7 biopsies: 50 mg and 100 mg, lower limit of quantitation 8 ng/g; for concentration at 7 day / concentration at 3 day: human, muscle, oral, read-out: Muscle AT2220 Conc
Text: GAA enzyme activity will be examined in muscle biopsy samples. One piece of muscle tissue will be removed as described in Table 1. GAA activity in muscle will be determined by a validated assay measuring enzyme activity using 4-MUG, with and without Con A. GAA protein levels will be measured by Western blotting using anti-human GAA antibody. 1-deoxynojirimycin hydrochloride concentrations in muscle samples collected in Period 2 will be determined using a validated LC-MS/MS assay.

[3] = Plasma and tissue distribution of 1-DNJ and N-butyl-DNJ in wild type C57BL/6 mice; conditions: mouse, in vivo, oral 100 mg/kg
Procedure: Eight-week old wild type C57BL/6 mice where administered an oral dose of 100 mg/kg of 1-DNJ or N-butyl-DNJ. […] The concentration of drug in plasma is expressed as ng/ml. The concentration of drug in tissue samples is expressed as ng/g.

[4] = tested on: T cells derived from blood from 50 healthy donors; assay: Ex vivo T cell immunogenicity (EpiScreen assay); assay type: cell-based, human; conditions: T cells from 50 healthy donors, addition of AT2220
Text: By stabilizing the folded and active form of the rhGAA enzyme, AT2220 may mitigate ERT-induced immunogenicity since unfolded and aggregated proteins are generally more antigenic than properly folded proteins. […] The studies utilized Antitope Ltd.'s EpiScreen™ assay and are being repeated in samples from the Pompe patients in the study described by Examples 1-3.

GAA = GAA (Homo sapiens, UniProt P10253); assay: Tissue GAA levels (activity, Western blot) in mice after rhGAA with 1-deoxynojirimycin hydrochloride; assay type: in vivo, mouse; parameters: from tissue; host or cells: heart, diaphragm, quadriceps, gastrocnemius, triceps and tongue of GAA knock-out mice injected with rhGAA; conditions: GAA knock-out mice; 10, 100 or 1000 mg/kg PO 30 min before and 8, 16, 24 h after bolus IV rhGAA 10 mg/kg weekly; 2, 4, 7 days post-administration
Text: The effect of a single oral administration of 1-deoxynojirimycin hydrochloride on rhGAA tissue uptake was studied in GAA knock-out mice.

- half-life ([1]; oral, 250 mg, Cohort 3, 250 mg AT2220, Mean, N=6, read-out: Plasma AT2220 T½ (converted)): 3.7 h
- AUC(0-t) ([1]; oral, 250 mg, Cohort 3, 250 mg AT2220, Median, N=6, read-out: Plasma AT2220 AUC0-T): 20800 ng·h/mL
- AUC(0-inf) ([1]; oral, 250 mg, Cohort 3, 250 mg AT2220, Median, N=6, read-out: Plasma AT2220 AUC0-∞): 20900 ng·h/mL
- Cmax ([1]; oral, 250 mg, Cohort 3, 250 mg AT2220, Median, N=6, read-out: Plasma AT2220 Cmax): 3180 ng/mL
- Tmax ([1]; oral, 250 mg, Cohort 3, 250 mg AT2220, Median, N=6, read-out: Plasma AT2220 Tmax): 2 h
- half-life ([1]; oral, 250 mg, Cohort 3, 250 mg AT2220, Median, N=6, read-out: Plasma AT2220 T½ (converted)): 3.6 h
- AUC(0-t) ([1]; oral, 250 mg, Cohort 3, 250 mg AT2220, individual subjects, read-out: Plasma AT2220 AUC0-T): 18700 ng·h/mL
- AUC(0-inf) ([1]; oral, 250 mg, Cohort 3, 250 mg AT2220, individual subjects, read-out: Plasma AT2220 AUC0-∞): 19300 ng·h/mL
- Tmax ([1]; oral, 250 mg, Cohort 3, 250 mg AT2220, individual subjects, read-out: Plasma AT2220 Tmax): 3 h
- half-life ([1]; oral, 250 mg, Cohort 3, 250 mg AT2220, individual subjects, read-out: Plasma AT2220 T½ (converted)): 4.6 h
- half-life ([1]; po, 50 mg, 50 mg single oral dose (N=4), arithmetic mean (SD), read-out: t½, plasma AT2220 (converted)): 3.1 h
- AUC(0-t) ([1]; po, 50 mg, 50 mg single oral dose (N=4), geometric mean (CV %), read-out: AUC0-T, plasma AT2220): 6970 ng·h/mL
- AUC(0-inf) ([1]; po, 50 mg, 50 mg single oral dose (N=4), geometric mean (CV %), read-out: AUC0-∞, plasma AT2220): 7010 ng·h/mL
- Tmax ([1]; po, 50 mg, 50 mg single oral dose (N=4), median (range), read-out: Tmax, plasma AT2220): 2 h
- Cmax ([1]; po, 50 mg, 50 mg single oral dose (N=4, Cohort 1), geometric mean (CV %), read-out: Cmax, plasma AT2220): 1040 ng/mL
- half-life ([1]; po, 100 mg, 100 mg single oral dose (N=6), arithmetic mean (SD), read-out: t½, plasma AT2220 (converted)): 3.4 h
- AUC(0-t) ([1]; po, 100 mg, 100 mg single oral dose (N=6), geometric mean (CV %), read-out: AUC0-T, plasma AT2220): 13000 ng·h/mL
- AUC(0-inf) ([1]; po, 100 mg, 100 mg single oral dose (N=6), geometric mean (CV %), read-out: AUC0-∞, plasma AT2220): 13100 ng·h/mL
- Tmax ([1]; po, 100 mg, 100 mg single oral dose (N=6), median (range), read-out: Tmax, plasma AT2220): 3 h
- Cmax ([1]; po, 100 mg, 100 mg single oral dose (N=6, Cohort 2), geometric mean (CV %), read-out: Cmax, plasma AT2220): 1860 ng/mL
- increase in mean AUC, plasma AT2220 ([1]; to 250 mg): 3.2 fold
- increase in mean Cmax, plasma AT2220 ([1]; to 250 mg): 3.0 fold
- Muscle AT2220 Conc ([2]; Cohort 2, 100 mg AT2220, Period 2, biopsy Day 3, individual subjects, LLOQ = 8.0 ng/g (16.0 or […] for diluted samples)): BLQ^c
- muscle AT2220 concentrations ([2]; Cohort 3 (250 mg) vs lower doses, preliminary): Dose-related increases
- subjects with a quantifiable AT2220 concentration in muscle ([2]; Cohort 3 (250 mg), biopsies 3 or 7 days post dose, preliminary): 4 of 6
- Muscle AT2220 Conc ([2]; Cohort 3, 250 mg AT2220, Period 2, biopsy Day 7, individual subjects, LLOQ = 8.0 ng/g (16.0 or […] for diluted samples)): 27.9 ng/g
- Muscle AT2220 Conc ([2]; Patient D, 50 mg, Period 2, Day 7, LLOQ = 8.0 ng/g): BLQ
- Muscle AT2220 Conc ([2]; Patient F, 100 mg, Period 2, Day 7, sample diluted 2-fold, LLOQ = […]): BLQ^b
- Muscle AT2220 Conc ([2]; Patient G, 100 mg, Period 2, Day 7, LLOQ = 8.0 ng/g): BLQ
- Muscle AT2220 Conc ([2]; Patient H, 100 mg, Period 2, Day 3, sample diluted 2-fold, LLOQ = […]): BLQ^b
- Muscle AT2220 Conc ([2]; Patient I, 100 mg, Period 2, Day 7, sample diluted 2-fold, LLOQ = […]): BLQ^b
- Muscle AT2220 Conc ([2]; Patient J, 100 mg, Period 2, Day 3, sample diluted 3-fold, LLOQ = […]): BLQ^c
- concentration at 7 day ([2]; 50 mg, Cohort 1, 50 mg AT2220, Period 2, biopsy Day 7, individual subjects, LLOQ = 8.0 ng/g (16.0 or […] for diluted samples)): 13.1 ng/g
- concentration at 7 day ([2]; 50 mg, Patient A, 50 mg, Period 2, Day 7, LLOQ = 8.0 ng/g): 11.8 ng/g
- concentration at 7 day ([2]; 50 mg, Patient B, 50 mg, Period 2, Day 7, LLOQ = 8.0 ng/g): 10 ng/g
- concentration at 7 day ([2]; 50 mg, Patient C, 50 mg, Period 2, Day 7, LLOQ = 8.0 ng/g): 13.1 ng/g
- concentration at 3 day ([2]; 100 mg, Cohort 2, 100 mg AT2220, Period 2, biopsy Day 3, individual subjects, LLOQ = 8.0 ng/g (16.0 or […] for diluted samples)): 17.8 ng/g
- concentration at 3 day ([2]; 100 mg, Patient E, 100 mg, Period 2, Day 3, LLOQ = 8.0 ng/g): 17.8 ng/g
- concentration at 3 day ([2]; 250 mg, Cohort 3, 250 mg AT2220, Period 2, biopsy Day 3, individual subjects, LLOQ = 8.0 ng/g (16.0 or […] for diluted samples)): 54.4 ng/g
- concentration at 7 day ([2]; 250 mg, Cohort 3, 250 mg AT2220, Period 2, biopsy Day 7, individual subjects, LLOQ = 8.0 ng/g (16.0 or […] for diluted samples)): 28.1 ng/g
- Cmax [3]: 120 µM
- tissue GAA levels (GAA): significant and dose-dependent increases
Compound: OC[C@H]1NC[C@H](O)[C@@H](O)[C@@H]1O [AT2220, (2R,3R,4R,5S)-2-hydroxymethyl-piperidine-3,4,5-triol]
- muscle concentrations from Day 3 or Day 7 biopsies [2]: either below or near the lower limit of quantitation
- muscle concentrations from Day 3 or Day 7 biopsies ([2]; listed as 1-DNJ-HCl): either below or just above the lower limit of quantification
- clearance from muscle ([2]; all four cohorts, Day 7): cleared from muscle to near-undetectable levels by Day 7
- immunogenicity of Myozyme and Lumizyme [4]: may significantly reduce the immunogenicity
